Experimental findings from BindingDB's records for doi:10.1021/jm050292k (Maxim Pharmaceuticals, 2005) are described below.

The nature of experiment [1]: Caspase-3 activation activity tested in DLD1 colon cells done for 24 or 48 hr at 37 degree C.
Experiment [2] can be described thus: Caspase-3 activation activity tested in H1299 lung cancer cells done for 24 or 48 hr at 37 degree C.
The nature of experiment [3]: Caspase-3 activation activity tested in T47D breast cells done for 24 or 48 hr at 37 degree C.
Experiment [4] can be described thus: Caspase activation activity of compound in cell line H-1299 nonsmall-cell lung cancer cells.
Experiment [5] can be described thus: Caspase-3 activation activity tested in ZR-75-1 cancer cells done for 24 or 48 hr at 37 degree C.
Experiment [6] in a line: Caspase-3 activation activity tested in […] cancer cells done for 24 or 48 hr at 37 degree C.
Experiment [7] in a line: Caspase-3 activation activity tested in LnCap cancer cells done for 24 or 48 hr at 37 degree C.
Experiment [8] in a line: Caspase-3 activation activity tested in HT-29 cancer cells done for 24 or 48 hr at 37 degree C.

The term EC50 denotes the concentration needed to bring the measured effect to its halfway point. High values mean a need for much substance, low ones an effect from little substance.

Regarding `Cc1ccc(-c2noc(-c3sccc3Cl)n2)cc1` [5-(3-Chloro-thiophen-2-yl)-3-p-tolyl-[1,2,4]oxadiazole], the concentration giving a half-maximal response (EC50) in experiment [1] was 1420 nM; in experiment [2] it was more than 10000 nM; in experiment [3] it was 3660 nM.
With `Clc1ccc(-c2noc(-c3sccc3Cl)n2)cn1` [2-Chloro-5-[5-(3-chloro-thiophen-2-yl)-[1,2,4]oxadiazol-3-yl]-pyridine], the EC50 is 290 nM in experiment [1], more than 10000 nM in experiment [2] and 750 nM in experiment [3].
With `Clc1ccc(-c2noc(-c3occc3Cl)n2)nc1` [5-Chloro-2-[5-(3-chloro-furan-2-yl)-[1,2,4]oxadiazol-3-yl]-pyridine], the 50% effective concentration (EC50) in experiment [1] is 580 nM; in experiment [4] it was more than 10000 nM; in experiment [3], 1110 nM.
As for `Clc1ccc(-c2noc(-c3occc3Cl)n2)cc1` [5-(3-Chloro-furan-2-yl)-3-(4-chloro-phenyl)-[1,2,4]oxadiazole], the EC50 in experiment [1] was 1490 nM; in experiment [2] it was more than 10000 nM; in experiment [3], 1740 nM.
For `Clc1ccc(-c2noc(-c3ccco3)n2)cc1` [3-(4-Chloro-phenyl)-5-furan-2-yl-[1,2,4]oxadiazole], the concentration for a half-maximal effect (EC50) is more than 10000 nM in experiment [1], more than 40000 nM in experiment [2] and 17400 nM in experiment [3].
For the compound `Clc1ccc(-c2noc(-c3sccc3Cl)n2)nc1` [5-Chloro-2-[5-(3-chloro-thiophen-2-yl)-[1,2,4]oxadiazol-3-yl]-pyridine], the concentration giving a half-maximal response (EC50) in experiment [1] is 390 nM; in experiment [2], more than 40000 nM; in experiment [3] it was 1590 nM.
Turning to `FC(F)(F)c1ccc(-c2noc(-c3occc3Br)n2)nc1` [2-[5-(3-Bromo-furan-2-yl)-[1,2,4]oxadiazol-3-yl]-5-trifluoromethyl-pyridine], the 50% effective concentration (EC50) was 700 nM in experiment [1], more than 10000 nM in experiment [2] and 610 nM in experiment [3].
For the compound `FC(F)(F)Oc1ccc(-c2noc(-c3sccc3Cl)n2)cc1` [5-(3-Chloro-thiophen-2-yl)-3-(4-trifluoromethoxy-phenyl)-[1,2,4]oxadiazole], the concentration giving a half-maximal response (EC50) is 430 nM in experiment [1], more than 10000 nM in experiment [2] and 890 nM in experiment [3].
For the compound `CN(C)c1ccc(-c2noc(-c3sccc3Cl)n2)cc1` [{4-[5-(3-Chloro-thiophen-2-yl)-[1,2,4]oxadiazol-3-yl]-phenyl}-dimethyl-amine], the figures for the EC50 in experiment [1], in experiment [2] and in experiment [3] were more than 10000 nM, more than 40000 nM and more than 40000 nM, respectively.
On to `Clc1ccc(-c2noc(-c3occc3Br)n2)cc1` [5-(3-Bromo-furan-2-yl)-3-(4-chloro-phenyl)-[1,2,4]oxadiazole], for which the results for the concentration giving a half-maximal response (EC50) in experiment [1], in experiment [2] and in experiment [3] were 830 nM, more than 10000 nM and 1080 nM, respectively.
In the case of `Clc1ccc(-c2noc(-c3cccs3)n2)cc1` [3-(4-Chloro-phenyl)-5-thiophen-2-yl-[1,2,4]oxadiazole], the results for the EC50 in experiment [1], in experiment [2] and in experiment [3] were more than 10000 nM, more than 40000 nM and more than 40000 nM, respectively.
In the case of `Clc1ccc(-c2noc(-c3occc3Br)n2)nc1` [2-[5-(3-Bromo-furan-2-yl)-[1,2,4]oxadiazol-3-yl]-5-chloro-pyridine], the concentration for a half-maximal effect (EC50) in experiment [1] was 840 nM; in experiment [2], more than 10000 nM; in experiment [3], 1610 nM.
`FC(F)(F)c1ccc(-c2noc(-c3occc3Cl)n2)cc1` [5-(3-Chloro-furan-2-yl)-3-(4-trifluoromethyl-phenyl)-[1,2,4]oxadiazole]: the figures for the concentration for a half-maximal effect (EC50) in experiment [1], in experiment [2] and in experiment [3] were 480 nM, more than 10000 nM and 520 nM, respectively.
As to `Cc1cc(Cl)ccc1-c1noc(-c2sccc2Cl)n1` [3-(4-chloro-2-methylphenyl)-5-(3-chlorothiophen-2-yl)-1,2,4-oxadiazole], the half-maximal effective concentration (EC50) is 380 nM in experiment [1], more than 40000 nM in experiment [2] and 910 nM in experiment [3].
In the case of `FC(F)(F)c1ccc(-c2noc(-c3sccc3Cl)n2)nc1` [2-[5-(3-Chloro-thiophen-2-yl)-[1,2,4]oxadiazol-3-yl]-5-trifluoromethyl-pyridine], the EC50 in experiment [1] is 410 nM; in experiment [2] it was more than 10000 nM; in experiment [3], 1440 nM.
As to `FC(F)(F)c1cccc(-c2noc(-c3sccc3Cl)n2)c1` [5-(3-Chloro-thiophen-2-yl)-3-(3-trifluoromethyl-phenyl)-[1,2,4]oxadiazole], the figures for the EC50 in experiment [1], in experiment [2] and in experiment [3] were 280 nM, more than 10000 nM and 900 nM, respectively.
As for `O=[N+]([O-])c1ccc(-c2noc(-c3occc3Cl)n2)cc1` [5-(3-Chloro-furan-2-yl)-3-(4-nitro-phenyl)-[1,2,4]oxadiazole], the half-maximal effective concentration (EC50) in experiment [2] is more than 40000 nM; in experiment [3], 1970 nM.
For the compound `Cc1csc(-c2nc(-c3ccc(Cl)cc3)no2)c1Cl` [5-(3-Chloro-4-methyl-thiophen-2-yl)-3-(4-chloro-phenyl)-[1,2,4]oxadiazole], the EC50 is more than 10000 nM in experiment [1], more than 40000 nM in experiment [2] and more than 40000 nM in experiment [3].
With `FC(F)(F)c1ccc(-c2noc(-c3ccccc3Cl)n2)cc1` [5-(2-Chloro-phenyl)-3-(4-trifluoromethyl-phenyl)-[1,2,4]oxadiazole], the EC50 in experiment [2] and in experiment [3] was more than 40000 nM each time.
Regarding `FC(F)(F)c1ccc(-c2noc(-c3occc3Br)n2)cc1` [5-(3-Bromo-furan-2-yl)-3-(4-trifluoromethyl-phenyl)-[1,2,4]oxadiazole], the 50% effective concentration (EC50) in experiment [1] was 1070 nM; in experiment [2], more than 10000 nM; in experiment [3] it was 2010 nM.
`Clc1ccc(-c2noc(-c3sccc3Cl)n2)cc1Cl` [5-(3-chlorothiophen-2-yl)-3-(3,4-dichlorophenyl)-1,2,4-oxadiazole]: the EC50 in experiment [1] is 370 nM; in experiment [2], more than 10000 nM; in experiment [3], 1410 nM.
With `FC(F)(F)c1ccc(-c2noc(-c3sccc3Cl)n2)cn1` [5-[5-(3-Chloro-thiophen-2-yl)-[1,2,4]oxadiazol-3-yl]-2-trifluoromethyl-pyridine], the figures for the concentration giving a half-maximal response (EC50) in experiment [1], in experiment [2] and in experiment [3] were 240 nM, more than 10000 nM and 920 nM, respectively.
In the case of `FC(F)(F)c1ccc(-c2noc(-c3sccc3Cl)n2)cc1` [5-(3-Chloro-thiophen-2-yl)-3-(4-trifluoromethyl-phenyl)-[1,2,4]oxadiazole], the EC50 in experiment [1] was 440 nM; in experiment [5] it was 3340 nM; in experiment [2], more than 40000 nM; in experiment [6] it was more than 10000 nM; in experiment [7], more than 10000 nM; in experiment [8], 760 nM. The response in experiment [3] was half-maximal at 1210 nM (EC50).
For `Clc1ccc(-c2noc(-c3sccc3Br)n2)cc1` [5-(3-Bromo-thiophen-2-yl)-3-(4-chloro-phenyl)-[1,2,4]oxadiazole], the values for the half-maximal effective concentration (EC50) in experiment [1], in experiment [2] and in experiment [3] were 1320 nM, more than 10000 nM and 3320 nM, respectively.
In the case of `Clc1ccc(-c2noc(-c3sccc3Cl)n2)cc1` [3-(4-Chloro-phenyl)-5-(3-chloro-thiophen-2-yl)-[1,2,4]oxadiazole], the half-maximal effective concentration (EC50) in experiment [1] was 790 nM; in experiment [2], more than 40000 nM; in experiment [3], 1770 nM.
On to `COc1ccc(-c2noc(-c3sccc3Cl)n2)cc1` [5-(3-Chloro-thiophen-2-yl)-3-(4-methoxy-phenyl)-[1,2,4]oxadiazole], for which the EC50 in experiment [1] was 1450 nM; in experiment [2], more than 10000 nM; in experiment [3], 4170 nM.
`Clc1ccc(-c2noc(-c3ccccc3Cl)n2)cc1` [5-(2-Chloro-phenyl)-3-(4-chloro-phenyl)-[1,2,4]oxadiazole]: the concentration for a half-maximal effect (EC50) in experiment [2] and in experiment [3] was more than 40000 nM each time.
For the compound `FC(F)(F)c1cc(-c2noc(-c3sccc3Cl)n2)ccc1Cl` [5-(3-Chloro-thiophen-2-yl)-3-(4-chloro-3-trifluoromethyl-phenyl)-[1,2,4]oxadiazole], the concentration giving a half-maximal response (EC50) in experiment [1] was 560 nM; in experiment [2], more than 10000 nM; in experiment [3], 930 nM.
For `Clc1ccsc1-c1nc(-c2ccccc2)no1` [5-(3-Chloro-thiophen-2-yl)-3-phenyl-[1,2,4]oxadiazole] the same measures were 760 nM, more than 40000 nM and 2820 nM.
On to `CCOc1ccsc1-c1nc(-c2ccc(Cl)cc2)no1` [3-(4-Chloro-phenyl)-5-(3-ethoxy-thiophen-2-yl)-[1,2,4]oxadiazole], for which the EC50 in experiment [1] is more than 10000 nM; in experiment [2], more than 40000 nM; in experiment [3] it was more than 40000 nM.
Turning to `Cc1ccc(-c2noc(-c3cccs3)n2)cc1` [5-Thiophen-2-yl-3-p-tolyl-[1,2,4]oxadiazole], the concentration for a half-maximal effect (EC50) was more than 10000 nM in experiment [1], more than 40000 nM in experiment [2] and more than 40000 nM in experiment [3].
